Data reported in paper PMC9643419 (Nature Communications, 2022).

How the values were obtained:
[1] = target: TEAD1 (Homo sapiens, UniProt P28347); assay: cell-based TEAD1 palmitoylation (alkyne palmitic acid labelling, HEK293A)
[2] = target: TEAD4 (Homo sapiens, UniProt Q15561); assay: TEAD4 biochemical palmitoylation assay
[3] = target: TEAD2 (Homo sapiens, UniProt Q15562); assay: in vitro autopalmitoylation of recombinant TEAD2 with alkyne palmitoyl-CoA, click/streptavidin blot; assay type: biochemical
TEAD2, sequence (Q15562 217-447): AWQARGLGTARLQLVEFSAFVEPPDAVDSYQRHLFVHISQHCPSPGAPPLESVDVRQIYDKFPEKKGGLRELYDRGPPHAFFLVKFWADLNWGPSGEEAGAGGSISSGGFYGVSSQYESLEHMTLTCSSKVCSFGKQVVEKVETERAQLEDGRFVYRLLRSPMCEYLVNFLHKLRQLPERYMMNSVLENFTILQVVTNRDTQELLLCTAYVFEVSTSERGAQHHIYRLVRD

TEAD1, sequence (P28347 whole entry): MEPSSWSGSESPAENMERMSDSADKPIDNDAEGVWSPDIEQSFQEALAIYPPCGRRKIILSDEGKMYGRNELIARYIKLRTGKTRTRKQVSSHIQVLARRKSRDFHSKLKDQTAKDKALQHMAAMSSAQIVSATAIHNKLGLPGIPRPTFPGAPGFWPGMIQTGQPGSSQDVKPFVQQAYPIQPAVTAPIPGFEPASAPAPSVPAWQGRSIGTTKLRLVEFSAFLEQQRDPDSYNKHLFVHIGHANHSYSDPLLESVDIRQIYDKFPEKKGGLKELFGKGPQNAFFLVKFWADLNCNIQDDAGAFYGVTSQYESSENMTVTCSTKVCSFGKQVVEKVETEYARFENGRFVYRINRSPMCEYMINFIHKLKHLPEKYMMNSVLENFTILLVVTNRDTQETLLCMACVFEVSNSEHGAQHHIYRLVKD
TEAD4, sequence (Q15561 whole entry): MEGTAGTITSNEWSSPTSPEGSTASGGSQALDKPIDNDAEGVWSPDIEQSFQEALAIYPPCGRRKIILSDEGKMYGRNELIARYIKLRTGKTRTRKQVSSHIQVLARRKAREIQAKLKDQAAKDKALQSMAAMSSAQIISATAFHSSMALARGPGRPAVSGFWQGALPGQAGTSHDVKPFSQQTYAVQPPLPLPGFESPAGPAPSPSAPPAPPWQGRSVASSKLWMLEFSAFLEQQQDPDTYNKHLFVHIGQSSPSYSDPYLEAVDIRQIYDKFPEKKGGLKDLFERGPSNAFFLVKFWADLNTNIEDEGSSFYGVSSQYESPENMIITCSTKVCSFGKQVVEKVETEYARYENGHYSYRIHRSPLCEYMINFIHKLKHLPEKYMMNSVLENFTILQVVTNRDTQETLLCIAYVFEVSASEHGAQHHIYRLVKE

IC50 [2] [nM]	IC50 [3] [nM]	SMILES	cell-based TEAD1 palmitoylation (alkyne palmitic acid labelling, HEK293A) [1]
		O=C(CSc1nnc[nH]1)Nc1ccc(C23CC4CC(CC(C4)C2)C3)cc1 [MGH-CP1, 2-((4H−1,2,4-triazol-3-yl)thio)-N-(4-((1 S,3 R,5 S)-adamantan-1-yl)phenyl)acetamide]	MGH-CP12 inhibits TEAD1 palmitoylation in cells more potently than MGH-CP1 (Fig. 1d)
852	106	O=C(CSc1nnc[nH]1)Nc1ccc(C23CC4CC(CC(C4)C2)C3)cc1Br [MGH-CP12, 2-((4H−1,2,4-triazol-3-yl)thio)-N-(4-((1 S,3 R,5 S)-adamantan-1-yl)−2-bromophenyl)acetamide]	MGH-CP12 inhibits TEAD1 palmitoylation in cells more potently than MGH-CP1 (Fig. 1d)
	617	O=C(CSc1nncs1)Nc1ccc(C23CC4CC(CC(C4)C2)C3)cc1 [MGH-CP28, 2-((1,3,4-thiadiazol-2-yl)thio)-N-(4-((1 S,3 R,5 S)-adamantan-1-yl)phenyl)acetamide]	
